In patent publication US20220243210A1, “ANGIOTENSIN II TYPE 1 RECEPTOR TARGETED OLIGONUCLEOTIDES AND USES THEREOF” (Ionis Pharmaceuticals, Inc., priority 2019, published 2022):
Oligonucleotides are written 5' to 3', each unit as a sugar letter and its base; * is a phosphorothioate linkage, no mark a phosphodiester; rarer units and linkages stand in square brackets, end groups in braces. Plain capitals give the bases only. k = constrained ethyl (cEt); [5mC] = 5-methylcytosine; d = 2'-deoxy (DNA)

What was measured:
mouse MALAT RNA = assay: MALAT RNA reduction in vivo, C57BL6/J mice, multiple dose; conditions: for ED50: IV day 0, 4, 8
Experimental: Compound Nos. 556089, 1229761, and 1229762 are described in Table 1 above. Compound Nos. 556089, 1229761, and 1229762 were tested in C57BL6/J mice. The mice were divided into groups of 4 mice each. […] The mice were then sacrificed on day 12. Heart, adipose, adrenal, kidney, and liver tissue was then collected and homogenized and RNA analysis was performed. A group of 4 mice received PBS as a negative control.
RNA was extracted from heart, adipose, adrenal, kidney, and liver tissue for real-time PCR analysis of measurement of RNA expression of MALAT using primer probe set mMALAT1 #2 (forward sequence […] (SEQ ID NO: 5); reverse sequence […] (SEQ ID NO: 6); probe sequence […] (SEQ ID NO: 7)). Results are presented as percent change of RNA, relative to PBS control, normalized to mouse GAPDH.

human AGTR1 = target: T1, human AGTR1 (Homo sapiens, UniProt P30556); assay: AGTR1 signaling, IP-One Gq kit (IP1 accumulation), HEK-AGTR1 FAP cells; format: cell-based; conditions: 90 minutes
T1 construct: host or cells: HEK293 (HEK-AGTR1 FAP cells)
T1 sequence (P30556 1-359): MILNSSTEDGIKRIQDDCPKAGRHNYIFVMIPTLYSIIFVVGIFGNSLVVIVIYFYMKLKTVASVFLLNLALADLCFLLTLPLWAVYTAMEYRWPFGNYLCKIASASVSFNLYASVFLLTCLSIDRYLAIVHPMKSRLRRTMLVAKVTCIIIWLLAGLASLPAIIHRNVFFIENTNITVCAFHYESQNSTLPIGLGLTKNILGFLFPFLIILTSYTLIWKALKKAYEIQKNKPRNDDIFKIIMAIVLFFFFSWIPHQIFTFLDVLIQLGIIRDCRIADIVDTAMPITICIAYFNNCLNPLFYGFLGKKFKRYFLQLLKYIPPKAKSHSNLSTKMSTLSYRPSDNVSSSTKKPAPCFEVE
Experimental: (§1) Activated AGTR1 couples to the Gαq subunit of heterotrimeric G proteins, which activates the phospholipase C (PLC) and subsequently inositol 1,4,5-trisphosphate (IP3) signaling cascade. AGTR1 signaling was measured using an IP-One Gq kit (cisbio #62IPAPEB). The kit detects the accumulation of inositol monophosphate (IP1), a stable downstream metabolite of IP3 induced by activation of a phospholipase C (PLC) cascade.
An additional control compound, AngII, which consists of the peptide motif […], was also tested. […] AGTR1 activation was measured using the IP-One Gq kit.

human MALAT1 RNA [1] = assay: MALAT1 RNA reduction in HEK-AGTR1 FAP cells, free uptake, 48 hours; format: cell-based; conditions: 48 hours; for MALAT (% control): relative to untreated control cells
Experimental: At the end of the treatment period, total RNA was isolated from the cells and MALAT1 RNA levels were measured by quantitative real-time PCR. […] MALAT1 RNA levels were normalized according to total RNA content, as measured by RIBOGREEN®. […] The half maximal inhibitory concentration (IC50) of each modified oligonucleotide was calculated using a non-linear fit [inhibitor] vs. response-variable slope (three parameters) formula in GraphPad Prism 7.01.

human MALAT1 RNA [2] = assay: MALAT1 RNA reduction in HEK-AGTR1 FAP cells, free uptake, 24 hours; format: cell-based; conditions: 24 hours; for MALAT (% control): relative to untreated control cells
Experimental: At the end of the treatment period, total RNA was isolated from the cells and MALAT1 RNA levels were measured by quantitative real-time PC&. […] MALAT1 RNA levels were normalized according to total RNA content, as measured by RIBOGREEN®. Reduction of MALAT1 RNA is presented Table 3 below as percent MALAT1 RNA amount relative to untreated control (UTC) cells. The half maximal inhibitory concentration (IC50) of each modified oligonucleotide was calculated using a non-linear fit [inhibitor] vs. response—variable slope (four parameters) formula in GraphPad Prism 7.01.

HEK-APLNR FAP cells = assay: IP1 accumulation negative control in HEK-APLNR FAP cells (do not express AGTR1); format: cell-based, human; conditions: 24 hours
Experimental: as §1
As a negative control, Compound Nos. 556089 and 1229761 were also tested in HEK293 cells expressing FAP tagged human Apelin receptor (HEK-APLNR FAP cells from Spectragenetics). […] HEK-APLNR FAP cells were cultured with Compound Nos. 556089 and 1229761, described herein above, at the concentrations detailed in Table 2 for 24 hours.

Compound No. 556089: Control unconjugated parent modified oligonucleotide GCATTCTAATAGCAGC, cEt gapmer, phosphorothioate, complementary to mouse MALAT1 RNA (kG*k[5mC]*kA*dT*dT*d[5mC]*dT*dA*dA*dT*dA*dG*d[5mC]*kA*kG*k[5mC]) [reference compound]
MALAT-1 RNA (% control) (mouse MALAT RNA; Adipose, 0.4 μmol/kg IV day 0, 4, 8, sacrifice day 12, relative to PBS): 68.4 % control
MALAT-1 RNA (% control) (mouse MALAT RNA; Adipose, 1.2 μmol/kg IV day 0, 4, 8, sacrifice day 12, relative to PBS): 41.1 % control
MALAT-1 RNA (% control) (mouse MALAT RNA; Adipose, 3.6 μmol/kg IV day 0, 4, 8, sacrifice day 12, relative to PBS): 27.3 % control
ED50 (mouse MALAT RNA; Adipose): 0.034 µmol/kg
MALAT-1 RNA (% control) (mouse MALAT RNA; Adrenal, 0.4 μmol/kg IV day 0, 4, 8, sacrifice day 12, relative to PBS): 95.2 % control
MALAT-1 RNA (% control) (mouse MALAT RNA; Adrenal, 1.2 μmol/kg IV day 0, 4, 8, sacrifice day 12, relative to PBS): 75.7 % control
MALAT-1 RNA (% control) (mouse MALAT RNA; Adrenal, 3.6 μmol/kg IV day 0, 4, 8, sacrifice day 12, relative to PBS): 64.1 % control
ED50 (mouse MALAT RNA; Adrenal): 1.102 µmol/kg
MALAT-1 RNA (% control) (mouse MALAT RNA; Heart, 0.4 μmol/kg IV day 0, 4, 8, sacrifice day 12, relative to PBS): 76.7 % control
MALAT-1 RNA (% control) (mouse MALAT RNA; Heart, 1.2 μmol/kg IV day 0, 4, 8, sacrifice day 12, relative to PBS): 74.7 % control
MALAT-1 RNA (% control) (mouse MALAT RNA; Heart, 3.6 μmol/kg IV day 0, 4, 8, sacrifice day 12, relative to PBS): 45.7 % control
ED50 (mouse MALAT RNA; Heart): 4.11 µmol/kg
MALAT-1 RNA (% control) (mouse MALAT RNA; Kidney, 0.4 μmol/kg IV day 0, 4, 8, sacrifice day 12, relative to PBS): 50.0 % control
MALAT-1 RNA (% control) (mouse MALAT RNA; Kidney, 1.2 μmol/kg IV day 0, 4, 8, sacrifice day 12, relative to PBS): 46.7 % control
MALAT-1 RNA (% control) (mouse MALAT RNA; Kidney, 3.6 μmol/kg IV day 0, 4, 8, sacrifice day 12, relative to PBS): 24.6 % control
ED50 (mouse MALAT RNA; Kidney): 3.535 µmol/kg
MALAT-1 RNA (% control) (mouse MALAT RNA; Liver, 0.4 μmol/kg IV day 0, 4, 8, sacrifice day 12, relative to PBS): 35.8 % control
MALAT-1 RNA (% control) (mouse MALAT RNA; Liver, 1.2 μmol/kg IV day 0, 4, 8, sacrifice day 12, relative to PBS): 24.1 % control
MALAT-1 RNA (% control) (mouse MALAT RNA; Liver, 3.6 μmol/kg IV day 0, 4, 8, sacrifice day 12, relative to PBS): 7.2 % control
ED50 (mouse MALAT RNA; Liver): 1.578 µmol/kg
IP1 accumulation (human AGTR1; 0.0256 nM): 696 nM
IP1 accumulation (human AGTR1; 0.128 nM): 669 nM
IP1 accumulation (human AGTR1; 0.64 nM): 692 nM
IP1 accumulation (human AGTR1; 3.2 nM): 658 nM
IP1 accumulation (human AGTR1; 16 nM): 646 nM
IP1 accumulation (human AGTR1; 80 nM): 605 nM
IP1 accumulation (human AGTR1; 400 nM): 648 nM
IP1 accumulation (human AGTR1; 2000 nM): 672 nM
MALAT (% control) (human MALAT1 RNA [1]; 2.7 nM): 97 % control
MALAT (% control) (human MALAT1 RNA [1]; 8.2 nM): 100 % control
MALAT (% control) (human MALAT1 RNA [1]; 24.7 nM): 104 % control
MALAT (% control) (human MALAT1 RNA [1]; 74.1 nM): 99 % control
MALAT (% control) (human MALAT1 RNA [1]; 222.2 nM): 82 % control
MALAT (% control) (human MALAT1 RNA [1]; 666.7 nM): 68 % control
MALAT (% control) (human MALAT1 RNA [1]; 2000 nM): 43 % control
MALAT (% control) (human MALAT1 RNA [1]; 6000 nM): 25 % control
MALAT (% control) (human MALAT1 RNA [1]; .10 nM): 104 % control
MALAT (% control) (human MALAT1 RNA [1]; .3 nM): 106 % control
MALAT (% control) (human MALAT1 RNA [1]; .9 nM): 101 % control
IC50 (human MALAT1 RNA [1]; MALAT1 RNA, three parameter fit): 1530 nM
MALAT (% control) (human MALAT1 RNA [2]; 12 nM): 86 % control
MALAT (% control) (human MALAT1 RNA [2]; 37 nM): 98 % control
MALAT (% control) (human MALAT1 RNA [2]; 111 nM): 91 % control
MALAT (% control) (human MALAT1 RNA [2]; 333 nM): 63 % control
MALAT (% control) (human MALAT1 RNA [2]; 1000 nM): 60 % control
MALAT (% control) (human MALAT1 RNA [2]; 3000 nM): 36 % control
MALAT (% control) (human MALAT1 RNA [2]; 9000 nM): 29 % control
IC50 (human MALAT1 RNA [2]; MALAT1 RNA, four parameter fit): 850 nM
IP1 accumulation (HEK-APLNR FAP cells; 0.0256 nM): 584 nM
IP1 accumulation (HEK-APLNR FAP cells; 0.128 nM): 536 nM
IP1 accumulation (HEK-APLNR FAP cells; 0.64 nM): 563 nM
IP1 accumulation (HEK-APLNR FAP cells; 3.2 nM): 538 nM
IP1 accumulation (HEK-APLNR FAP cells; 16 nM): 526 nM
IP1 accumulation (HEK-APLNR FAP cells; 80 nM): 514 nM
IP1 accumulation (HEK-APLNR FAP cells; 400 nM): 553 nM
IP1 accumulation (HEK-APLNR FAP cells; 2000 nM): 542 nM
